Reference: PMC6522510 (Nature Communications, 2019)
Read-outs that look alike come from different tables or passages of the source.

Legend:
Test in all cases: Secondary dose-response HTS, Cell Titer Glo; call rule not given here
Assay type in all cases: cell-based, human
MOLM-13 = conditions: MOLM-13
MV4-11 = conditions: MV4-11; for EC50: Homo sapiens
CHRF288-11 = system: CHRF288-11
CMK = conditions: CMK
CMS = system: CMS
M07e = system: M07e
ML2 = conditions: ML-2
U937 = system: U937
[1] = secondary high-throughput screen
[2] = secondary high-throughput screen, CHRF288-11
[3] = secondary high-throughput screen, CMS
[4] = secondary high-throughput screen, M07e
[5] = secondary high-throughput screen, U937
[6] = secondary high-throughput screen, read-out: average effective concentration, CMK
[7] = secondary high-throughput screen, U937, read-out: average effective concentration, U937
[8] = Homo sapiens, secondary high-throughput screen, read-out: average effective concentration, MOLM-13
[9] = secondary high-throughput screen, read-out: average effective concentration, MV4-11
[10] = Homo sapiens, HTS, secondary high-throughput screen, CHRF288-11, read-out: average effective concentration, CHRF288-11
[11] = Homo sapiens, M-07e, secondary high-throughput screen, M07e, read-out: average effective concentration, M07e
[12] = Homo sapiens, secondary high-throughput screen, read-out: average effective concentration, ML-2
[13] = Homo sapiens, U-937, secondary high-throughput screen, U937, read-out: average effective concentration, U937
[14] = secondary high-throughput screen, CHRF288-11, read-out: average effective concentration, CHRF288-11
[15] = secondary high-throughput screen, M07e, read-out: average effective concentration, M07e
[16] = secondary high-throughput screen, read-out: average effective concentration, ML-2
[17] = Homo sapiens, HTS, secondary high-throughput screen, CMS, read-out: average effective concentration, CMS
[18] = Homo sapiens, secondary high-throughput screen, read-out: average effective concentration, CMK

| SMILES | average effective concentration, MOLM-13 (MOLM-13; [1]) | average effective concentration, MV4-11 (MV4-11; [1]) | average effective concentration, CHRF288-11 (CHRF288-11; [2]) | average effective concentration, CMK (CMK; [1]) | average effective concentration, CMS (CMS; [3]) | average effective concentration, M07e (M07e; [4]) | average effective concentration, ML-2 (ML2; [1]) | average effective concentration, U937 (U937; [5]) | also measured |
| --- | --- | --- | --- | --- | --- | --- | --- | --- | --- |
| Cc1ccc(C(=O)COC(=O)c2cccc(NC(=O)c3ccc([N+](=O)[O-])cc3[N+](=O)[O-])c2)cc1 [FM19G11] | Inactive | Inactive | Inactive | Inactive | Inactive | Inactive | Inactive | Inactive |  |
| Nc1[nH]nc2nnc(-c3c(-c4ccccc4)nn4ccccc34)cc12 [FR 180204] | Inactive | Inactive | Inactive | Inactive | Inactive | Inactive | Inactive | Inactive |  |
| CSCC[C@H](NC(=O)[C@H](Cc1ccccc1)NC[C@@H](NC[C@@H](N)CS)C(C)C)C(=O)O [FTASE INHIBITOR I] | Inactive | Inactive | Inactive | Inactive | Inactive |  | Inactive | Inactive | average effective concentration, M07e (M07e; secondary high-throughput screen, […]): Inactive |
| COC(=O)[C@H](CCSC)NC(=O)c1ccc(NC[C@@H](N)CS)cc1-c1ccccc1 [FTI-277] | Inactive | Inactive | Inactive | Inactive | Inactive | Inactive | Inactive | Inactive |  |
| N[C@H](CCC(=O)N[C@@H](Cc1c[nH]c2ccccc12)C(=O)O)C(=O)O [GOLOTIMOD] | Inactive | Inactive | Inactive | Inactive | Inactive | Inactive | Inactive | Inactive |  |
| CNC(=O)c1c(F)cccc1Nc1nc(Nc2cc3c(cc2OC)CCN3C(=O)CN(C)C)nc2[nH]ccc12 [GSK1838705A] | Inactive | Inactive | Inactive |  | Inactive | Inactive | Inactive |  | EC50 (CMK; [6]): 5.8 µM; EC50 (U937; [7]): 6.2 µM |
| COc1ncc(-c2ccc3nccc(-c4ccnnc4)c3c2)cc1NS(=O)(=O)c1ccc(F)cc1F [GSK-2126458] |  |  |  |  |  |  |  |  | EC50 (MOLM-13; [8]): 0.94 µM; EC50 (MV4-11; [9]): 0.001 µM; EC50 (CHRF288-11; [10]): 1.3 µM; EC50 (CMK; Homo sapiens, read-out: average effective concentration, CMK): 0.001 µM; EC50 (CMS; Homo sapiens, HTS, read-out: average effective concentration, CMS): 0.04 µM; EC50 (M07e; [11]): 5.6 µM; EC50 (ML2; [12]): 0.001 µM; EC50 (U937; [13]): 0.001 µM |
| O=C1Nc2ccc(I)cc2/C1=C/c1cc(Br)c(O)c(Br)c1 [GW 5074] | Inactive | Inactive | Inactive | Inactive | Inactive | Inactive | Inactive | Inactive |  |
| CC(C)=CCC[C@]1(C)C=Cc2c(O)c3c(c(CC=C(C)C)c2O1)O[C@]12C(=C[C@@H]4C[C@H]1C(C)(C)O[C@@]2(C/C=C(/C)C(=O)O)C4=O)C3=O [Gambogic acid, reference compound] |  |  |  |  |  |  |  |  | EC50 (MOLM-13; Homo sapiens, secondary HTS, 72 h, average of triplicate, read-out: EC50 MOLM-13): 0.19 µM; EC50 (MV4-11; secondary HTS, 72 h, average of triplicate, read-out: EC50 MV4-11): 0.17 µM; EC50 (CHRF288-11; Homo sapiens, secondary HTS, 72 h, average of triplicate, read-out: EC50 CHRF288-11): 0.22 µM; EC50 (CMK; Homo sapiens, secondary HTS, 72 h, average of triplicate, read-out: EC50 CMK): 0.36 µM; EC50 (CMS; Homo sapiens, secondary HTS, 72 h, average of triplicate, read-out: EC50 CMS): 0.26 µM; EC50 (M07e; Homo sapiens, M-07e, secondary HTS, 72 h, average of triplicate, read-out: EC50 M07e): 0.24 µM; EC50 (ML2; Homo sapiens, secondary HTS, 72 h, average of triplicate, read-out: EC50 ML2): 0.15 µM; EC50 (U937; Homo sapiens, U-937, secondary HTS, 72 h, average of triplicate, read-out: EC50 U937): 0.19 µM |
| O=[N+]([O-])c1c(Nc2cc(F)cc(Cl)c2)ccc2nonc12 [HIF-C2] |  | Inactive | Inactive | Inactive | Inactive | Inactive | Inactive | Inactive | EC50 (MOLM-13; secondary high-throughput screen, read-out: average effective concentration, MOLM-13): 0.013 µM |
| O=C1c2ccccc2-c2nc3nnnn3nc21.O=C1c2ccccc2-c2nn3nnnc3nc21 [KP-372-1] | Inactive | Inactive |  |  |  |  |  |  | EC50 (CHRF288-11; [14]): 0.038 µM; EC50 (CMK; [6]): 0.024 µM; EC50 (CMS; secondary high-throughput screen, CMS, read-out: average effective concentration, CMS): 0.031 µM; EC50 (M07e; [15]): 0.053 µM; EC50 (ML2; [16]): 0.006 µM; EC50 (U937; [7]): 0.01 µM |
| C[C@@H]1CN(CC(=O)Nc2ccc3c(c2)Cc2cccc(-c4cc(=O)cc(N5CCOCC5)o4)c2S3)C[C@H](C)O1 [KU60019] | Inactive | Inactive | Inactive | Inactive |  | Inactive | Inactive | Inactive | EC50 (CMS; [17]): > 10 µM |
| C[N+](C)(C)[C@@H](Cc1c[nH]c(=S)[nH]1)C(=O)[O-] [L-(+)-ERGOTHIONEINE] | Inactive | Inactive | Inactive | Inactive | Inactive |  | Inactive | Inactive | EC50 (M07e; [15]): 3.2 µM |
| Cn1c(/C=C/C(=O)NO)ccc1/C=C/C(=O)c1cccc(F)c1 [MC1568] | Inactive | Inactive |  | Inactive | Inactive |  |  |  | EC50 (CHRF288-11; [14]): 4.9 µM; EC50 (M07e; [15]): 0.46 µM; EC50 (ML2; [16]): 4.3 µM; EC50 (U937; [7]): 3.4 µM |
| CCOC(=O)c1cc2ccccc2nc1C [MC-1626] | Inactive | Inactive | Inactive | Inactive | Inactive | Inactive | Inactive | Inactive |  |
| CC12CC3CC(C)(C1)CC(N)(C3)C2 [MEMANTINE] | Inactive | Inactive | Inactive | Inactive | Inactive |  | Inactive | Inactive | EC50 (M07e; [11]): > 10 µM |
| CN(C)c1ccc2nc3ccc(=[N+](C)C)cc-3sc2c1 [METHYLENE BLUE] |  |  |  |  |  |  |  |  | EC50 (MOLM-13; [8]): 2 µM; EC50 (MV4-11; [9]): 1.3 µM; EC50 (CHRF288-11; [10]): 6.2 µM; EC50 (CMK; [18]): 3.4 µM; EC50 (CMS; [17]): > 10 µM; EC50 (M07e; [11]): > 10 µM; EC50 (ML2; [12]): 5.9 µM; EC50 (U937; [13]): 10 µM |
| CO[C@@]12[C@H](COC(N)=O)C3=C(C(=O)C(C)=C(N)C3=O)N1C[C@@H]1N[C@@H]12 [MITOMYCIN C] |  |  |  |  |  |  |  |  | EC50 (MOLM-13; [8]): 2.8 µM; EC50 (MV4-11; [9]): 4.1 µM; EC50 (CHRF288-11; [10]): 0.75 µM; EC50 (CMK; [18]): 0.77 µM; EC50 (CMS; [17]): 10 µM; EC50 (M07e; [11]): 9.4 µM; EC50 (ML2; [12]): 2.4 µM; EC50 (U937; [13]): 4.4 µM |
